Reference: PMC12217109, “Development of novel benzamide class I selective lysine deacetylase inhibitors as potent anticancer agents” (Journal of Enzyme Inhibition and Medicinal Chemistry, 2025)

How the values were obtained:
HL-60 = assay: NCI-60 cytotoxicity screen; type: cell-based; conditions: Homo sapiens, NCI-60, 48 h, leukaemia
From the text: (§1) Compounds 3–7 were submitted to the US National Cancer Institute (NIH, Bethesda, Maryland) for screening against the NCI-60 panel of human cancer cell lines, as per standard protocol.

H522 = assay: NCI-60 cytotoxicity screen; type: cell-based; conditions: Homo sapiens, NCI-60, 48 h, NSCLC
From the text: as §1

SW620 = assay: NCI-60 cytotoxicity screen; type: cell-based; conditions: Homo sapiens, SW-620; NCI-60, 48 h, colon
From the text: as §1

CAKI-1 = assay: NCI-60 cytotoxicity screen; type: cell-based; conditions: Homo sapiens, NCI-60, 48 h, renal
From the text: as §1

NCI/ADR-RES = assay: NCI-60 cytotoxicity screen; type: cell-based; conditions: Homo sapiens, NCI-60, 48 h, ovarian
From the text: as §1

UO-31 = assay: NCI-60 cytotoxicity screen; type: cell-based; conditions: Homo sapiens, NCI-60, 48 h, renal
From the text: as §1

SNB-19 = assay: NCI-60 cytotoxicity screen; type: cell-based; conditions: Homo sapiens, NCI-60, 48 h, CNS
From the text: as §1

SK-MEL-5 = assay: NCI-60 cytotoxicity screen; type: cell-based; conditions: Homo sapiens, NCI-60, 48 h, melanoma
From the text: as §1

HCT116 = assay: NCI-60 cytotoxicity screen; type: cell-based; conditions: Homo sapiens, HCT-116; NCI-60, 48 h, colon
From the text: as §1

KM12 = assay: NCI-60 cytotoxicity screen; type: cell-based; conditions: Homo sapiens, NCI-60, 48 h, colon
From the text: as §1

HCT15 = assay: NCI-60 cytotoxicity screen; type: cell-based; conditions: Homo sapiens, HCT-15; NCI-60, 48 h, colon
From the text: as §1

IGROV-1 = assay: NCI-60 cytotoxicity screen; type: cell-based; conditions: Homo sapiens, NCI-60, 48 h, ovarian
From the text: as §1

RPMI-8226 = assay: NCI-60 cytotoxicity screen; type: cell-based; conditions: Homo sapiens, NCI-60, 48 h, leukaemia
From the text: as §1

EKVX = assay: NCI-60 cytotoxicity screen; type: cell-based; conditions: Homo sapiens, NCI-60, 48 h, NSCLC
From the text: as §1

H460 = assay: NCI-60 cytotoxicity screen; type: cell-based; conditions: Homo sapiens, NCI-60, 48 h, NSCLC
From the text: as §1

H23 = assay: NCI-60 cytotoxicity screen; type: cell-based; conditions: Homo sapiens, NCI-60, 48 h, NSCLC
From the text: as §1

M14 = assay: NCI-60 cytotoxicity screen; type: cell-based; conditions: Homo sapiens, NCI-60, 48 h, melanoma
From the text: as §1

SK-MEL-28 = assay: NCI-60 cytotoxicity screen; type: cell-based; conditions: Homo sapiens, NCI-60, 48 h, melanoma
From the text: as §1

RXF 393 = assay: NCI-60 cytotoxicity screen; type: cell-based; conditions: Homo sapiens, NCI-60, 48 h, renal
From the text: as §1

SNB-75 = assay: NCI-60 cytotoxicity screen; type: cell-based; conditions: Homo sapiens, NCI-60, 48 h, CNS
From the text: as §1

LOX IMVI = assay: NCI-60 cytotoxicity screen; type: cell-based; conditions: Homo sapiens, NCI-60, 48 h, melanoma
From the text: as §1

HS 578 T = assay: NCI-60 cytotoxicity screen; type: cell-based; conditions: Homo sapiens, NCI-60, 48 h, breast
From the text: as §1

SR = assay: NCI-60 cytotoxicity screen; type: cell-based; conditions: Homo sapiens, NCI-60, 48 h, leukaemia
From the text: as §1

COLO205 = assay: NCI-60 cytotoxicity screen; type: cell-based; conditions: Homo sapiens, COLO 205; NCI-60, 48 h, colon
From the text: as §1

MCF-7 = assay: NCI-60 cytotoxicity screen; type: cell-based; conditions: Homo sapiens, MCF7; NCI-60, 48 h, breast
From the text: as §1

U251 = assay: NCI-60 cytotoxicity screen; type: cell-based; conditions: Homo sapiens, U-251; NCI-60, 48 h, CNS
From the text: as §1

BT 549 = assay: NCI-60 cytotoxicity screen; type: cell-based; conditions: Homo sapiens, NCI-60, 48 h, breast
From the text: as §1

MDA-MB-435 = assay: NCI-60 cytotoxicity screen; type: cell-based; conditions: Homo sapiens, NCI-60, 48 h, melanoma
From the text: as §1

PC-3 = assay: NCI-60 cytotoxicity screen; type: cell-based; conditions: Homo sapiens, NCI-60, 48 h, prostate
From the text: as §1

SK-MEL-2 = assay: NCI-60 cytotoxicity screen; type: cell-based; conditions: Homo sapiens, NCI-60, 48 h, melanoma
From the text: as §1

OVCAR-3 = assay: NCI-60 cytotoxicity screen; type: cell-based; conditions: Homo sapiens, NCI-60, 48 h, ovarian
From the text: as §1

SF-268 = assay: NCI-60 cytotoxicity screen; type: cell-based; conditions: Homo sapiens, NCI-60, 48 h, CNS
From the text: as §1

DU-145 = assay: NCI-60 cytotoxicity screen; type: cell-based; conditions: Homo sapiens, NCI-60, 48 h, prostate
From the text: as §1

OVCAR-4 = assay: NCI-60 cytotoxicity screen; type: cell-based; conditions: Homo sapiens, NCI-60, 48 h, ovarian
From the text: as §1

786-0 = assay: NCI-60 cytotoxicity screen; type: cell-based; conditions: Homo sapiens, NCI-60, 48 h, renal
From the text: as §1

SF-295 = assay: NCI-60 cytotoxicity screen; type: cell-based; conditions: Homo sapiens, NCI-60, 48 h, CNS
From the text: as §1

OVCAR-8 = assay: NCI-60 cytotoxicity screen; type: cell-based; conditions: Homo sapiens, NCI-60, 48 h, ovarian
From the text: as §1

SF-539 = assay: NCI-60 cytotoxicity screen; type: cell-based; conditions: Homo sapiens, NCI-60, 48 h, CNS
From the text: as §1

HOP-62 = assay: NCI-60 cytotoxicity screen; type: cell-based; conditions: Homo sapiens, NCI-60, 48 h, NSCLC
From the text: as §1

UACC-62 = assay: NCI-60 cytotoxicity screen; type: cell-based; conditions: Homo sapiens, NCI-60, 48 h, melanoma
From the text: as §1

SN12C = assay: NCI-60 cytotoxicity screen; type: cell-based; conditions: Homo sapiens, NCI-60, 48 h, renal
From the text: as §1

A549 = assay: NCI-60 cytotoxicity screen; type: cell-based; conditions: Homo sapiens, NCI-60, 48 h, NSCLC
From the text: as §1

ACHN = assay: NCI-60 cytotoxicity screen; type: cell-based; conditions: Homo sapiens, NCI-60, 48 h, renal
From the text: as §1

HeLa nuclear KDACs = assay: Fluor-de-Lys HDAC fluorometric activity assay with HeLa nuclear extract; type: biochemical; conditions: for IC50: HeLa nuclear extract, up to 20 µM, read-out: HDAC Inhibition IC50; for IC20: concentration inhibiting HDAC activity by 20%, read-out: HDAC Inhibition IC20
Method: Total zinc-dependent KDAC (classes I, II and IV) activity was measured using the Fluor-de-Lys^TM HDAC fluorometric activity assay kit (BioMol, Exeter, UK), as per manufacturers protocol. Briefly, HeLa nuclear extract, potential inhibitor (5 nM–20 μM) and assay buffer were incubated in a 96-well fluorometric plate at 37 °C for 15 min. Acetylated substrate (100 μM) was added and the mixture incubated at 37 °C for a further 20 min. The developer was added and the mixture incubated at 37 °C for a further 15 min. Fluorescence was measured using a microplate reader (λex = 360 nm, λem = 460 nm). Percentage KDAC activity and thus KDAC inhibition was determined by quantification of fluorescence obtained in the presence versus absence of the respective inhibitor.

## C=C(CN1CCN(c2cccc(C(F)(F)F)c2)CC1)c1ccc(C(=O)Nc2ccccc2N)cc1 [Compound 4, N-(2-aminophenyl)-4–(3-(4–(3-(trifluoromethyl)phenyl)piperazin-1-yl)prop-1-en-2-yl)benzamide]
HL-60
  IC50: 0.12 µM
H522
  IC50: 6.14 µM
SW620
  IC50: 1.28 µM
CAKI-1
  IC50: 0.63 µM
NCI/ADR-RES
  IC50: 0.11 µM
UO-31
  IC50: 2.39 µM
SNB-19
  IC50: 4.1 µM
SK-MEL-5
  IC50: 0.57 µM
HCT116
  IC50: 1.14 µM
KM12
  IC50: 0.49 µM
HCT15
  IC50: 0.48 µM
IGROV-1
  IC50: 14.2 µM
RPMI-8226
  IC50: 0.32 µM
EKVX
  IC50: 2.92 µM
H460
  IC50: 1.56 µM
H23
  IC50: 3.72 µM
M14
  IC50: 1.05 µM
SK-MEL-28
  IC50: 3.4 µM
RXF 393
  IC50: 1.62 µM
SNB-75
  IC50: 0.01 µM
LOX IMVI
  IC50: 0.12 µM
HS 578 T
  IC50: 0.49 µM
SR
  IC50: 0.02 µM
COLO205
  IC50: 3.45 µM
MCF-7
  IC50: 1.24 µM
U251
  IC50: 1.17 µM
BT 549
  IC50: 0.33 µM
MDA-MB-435
  IC50: 0.14 µM
PC-3
  IC50: 0.62 µM
SK-MEL-2
  IC50: 3.44 µM
OVCAR-3
  IC50: 0.55 µM
SF-268
  IC50: 1.43 µM
DU-145
  IC50: 1.36 µM
OVCAR-4
  IC50: 3.94 µM
786-0
  IC50: 1.1 µM
SF-295
  IC50: 0.54 µM
OVCAR-8
  IC50: 1.4 µM
SF-539
  IC50: 0.54 µM
HOP-62
  IC50: 0.7 µM
UACC-62
  IC50: 0.41 µM
SN12C
  IC50: 0.29 µM
A549
  IC50: 1.48 µM
ACHN
  IC50: 0.92 µM
HeLa nuclear KDACs
  IC50: > 20 µM
  IC20: 5 ± 1.5 µM

## C=C(CN1CCN(c2ccc(C(F)(F)F)cc2)CC1)c1ccc(C(=O)Nc2ccccc2N)cc1 [Compound 5, N-(2-aminophenyl)-4–(3-(4–(4-(trifluoromethyl)phenyl)piperazin-1-yl)prop-1-en-2-yl)benzamide]
HL-60
  IC50: 0.08 µM
H522
  IC50: 1.85 µM
SW620
  IC50: 78.9 µM
CAKI-1
  IC50: 6.08 µM
NCI/ADR-RES
  IC50: 3.37 µM
UO-31
  IC50: 0.97 µM
SNB-19
  IC50: 12.6 µM
SK-MEL-5
  IC50: 4.43 µM
HCT116
  IC50: 11.4 µM
KM12
  IC50: 7.64 µM
HCT15
  IC50: > 100 µM
IGROV-1
  IC50: 18.2 µM
RPMI-8226
  IC50: 0.4 µM
EKVX
  IC50: 12.4 µM
H460
  IC50: 3.44 µM
H23
  IC50: 9.48 µM
M14
  IC50: 90.6 µM
SK-MEL-28
  IC50: > 100 µM
RXF 393
  IC50: 1.97 µM
SNB-75
  IC50: 12.5 µM
LOX IMVI
  IC50: 11.1 µM
HS 578 T
  IC50: 22.5 µM
SR
  IC50: 1.1 µM
COLO205
  IC50: > 100 µM
MCF-7
  IC50: 10.9 µM
U251
  IC50: 6.25 µM
BT 549
  IC50: 6.92 µM
MDA-MB-435
  IC50: 25.2 µM
PC-3
  IC50: 1.29 µM
SK-MEL-2
  IC50: > 100 µM
OVCAR-3
  IC50: 12 µM
SF-268
  IC50: 6.78 µM
DU-145
  IC50: 21 µM
OVCAR-4
  IC50: 5.68 µM
786-0
  IC50: 2.85 µM
SF-295
  IC50: 10.8 µM
OVCAR-8
  IC50: 6.95 µM
SF-539
  IC50: 8.15 µM
HOP-62
  IC50: 8.38 µM
UACC-62
  IC50: 23 µM
SN12C
  IC50: 6.37 µM
A549
  IC50: 6.43 µM
ACHN
  IC50: 9.64 µM
HeLa nuclear KDACs
  IC50: > 20 µM
  IC20: 5.8 ± 1.8 µM
